Test results reported in ChEMBL document CHEMBL5518236, “Discovery of Clinical Candidate AZD5462, a Selective Oral Allosteric RXFP1 Agonist for Treatment of Heart Failure” (J Med Chem, 2024).
Activity calls are given as the source filed them. The calls are words filed in the database; no cut-off is given here.

How the values were obtained:
[1] = Octanol/water partition coefficient, logD of the compound at pH 7.4 by shake flask method; assay type: physicochemical
[2] = Metabolic stability in human hepatocytes assessed as intrinsic clearance measured per 10^6 viable cells/ml at 1 uM measured upto 120 mins by LC-MS/MS analysis; assay type: ADME, cell-based, Hepatocyte; details: read-out: CLH
[3] = Metabolic stability in human hepatocytes assessed as unbound intrinsic clearance measured per 10^6 viable cells/ml at 1 uM measured upto 120 mins by LC-MS/MS analysis; assay type: ADME, cell-based, Hepatocyte; details: 2 h
[4] = Metabolic stability in human liver microsomes assessed as intrinsic clearance at 1 uM measured upto 30 mins by LC-MS/MS analysis; assay type: ADME, Microsome; details: read-out: CLH
[5] = Metabolic stability in human liver microsomes assessed as unbound intrinsic clearance at 1 uM measured upto 30 mins by LC-MS/MS analysis; assay type: ADME, Microsome; details: 0.5 h
[6] = Apparent permeability across apical to basolateral side in human Caco-2 cells at pH 7.4 by LC-MS/MS analysis; assay type: ADME, cell-based; details: Caco-2, pH 7.4
Relaxin receptor 1 [7] = target: T1, Relaxin receptor 1 (Homo sapiens, UniProt Q9HBX9)
T1 sequence (Q9HBX9 whole entry): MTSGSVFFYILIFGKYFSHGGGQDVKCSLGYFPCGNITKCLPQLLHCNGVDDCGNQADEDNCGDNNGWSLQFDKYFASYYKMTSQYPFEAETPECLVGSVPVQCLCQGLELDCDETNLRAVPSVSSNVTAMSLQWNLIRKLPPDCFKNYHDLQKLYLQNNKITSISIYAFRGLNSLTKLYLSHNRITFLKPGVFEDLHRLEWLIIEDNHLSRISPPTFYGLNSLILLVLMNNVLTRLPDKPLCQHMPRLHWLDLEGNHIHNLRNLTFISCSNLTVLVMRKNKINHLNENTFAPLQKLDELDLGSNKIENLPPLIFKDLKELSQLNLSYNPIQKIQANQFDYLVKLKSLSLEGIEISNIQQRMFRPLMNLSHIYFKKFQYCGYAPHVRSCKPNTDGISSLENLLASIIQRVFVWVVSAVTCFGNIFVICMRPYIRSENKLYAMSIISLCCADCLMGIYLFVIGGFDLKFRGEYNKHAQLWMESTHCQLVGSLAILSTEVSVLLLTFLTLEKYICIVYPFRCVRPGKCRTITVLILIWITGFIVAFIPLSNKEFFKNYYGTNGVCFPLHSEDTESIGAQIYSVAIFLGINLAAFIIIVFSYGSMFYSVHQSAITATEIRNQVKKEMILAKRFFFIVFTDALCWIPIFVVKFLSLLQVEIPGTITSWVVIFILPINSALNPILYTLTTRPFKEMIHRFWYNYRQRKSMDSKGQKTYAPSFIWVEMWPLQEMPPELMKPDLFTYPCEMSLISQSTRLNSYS
Description: Agonist activity at human RXFP1 expressed in CHO cells assessed as increase in cAMP level measured after 2 hrs by HTRF cAMP assay

[8] = Protein binding in rat plasma assessed as fraction unbound at 5 uM measured after 18 hrs by LC-MS/MS analysis; assay type: ADME, cell-free; details: read-out: PPB
Relaxin receptor 1 [9] = target: T2, Relaxin receptor 1 (Rattus norvegicus, UniProt Q6R6I6); assay: Agonist activity at rat RXFP1 expressed in CHO-K1 cells assessed as increase in cAMP level measured after 2 hrs by HTRF cAMP assay; assay type: functional, cell-based
T2 sequence (Q6R6I6 whole entry): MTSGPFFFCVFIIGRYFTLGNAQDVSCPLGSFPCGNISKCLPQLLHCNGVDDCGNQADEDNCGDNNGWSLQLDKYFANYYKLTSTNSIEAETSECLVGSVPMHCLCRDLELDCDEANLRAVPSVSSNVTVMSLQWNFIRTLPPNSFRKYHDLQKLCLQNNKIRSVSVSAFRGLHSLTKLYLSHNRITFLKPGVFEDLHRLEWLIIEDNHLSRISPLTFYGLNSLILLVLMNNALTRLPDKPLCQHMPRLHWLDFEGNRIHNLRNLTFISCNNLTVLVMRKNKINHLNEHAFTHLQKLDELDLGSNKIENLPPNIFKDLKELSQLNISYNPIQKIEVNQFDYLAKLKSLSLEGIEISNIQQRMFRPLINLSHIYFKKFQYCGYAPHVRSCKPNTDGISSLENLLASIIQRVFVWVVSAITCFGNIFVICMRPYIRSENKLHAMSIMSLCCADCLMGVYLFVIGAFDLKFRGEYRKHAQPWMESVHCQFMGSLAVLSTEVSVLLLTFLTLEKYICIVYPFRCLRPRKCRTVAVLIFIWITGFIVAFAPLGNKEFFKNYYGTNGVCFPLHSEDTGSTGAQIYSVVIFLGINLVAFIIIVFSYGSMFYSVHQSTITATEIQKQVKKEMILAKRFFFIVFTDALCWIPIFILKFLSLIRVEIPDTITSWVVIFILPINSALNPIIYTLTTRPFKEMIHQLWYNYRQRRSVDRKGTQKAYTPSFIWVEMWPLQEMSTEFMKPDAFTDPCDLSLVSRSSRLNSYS

[10] = Metabolic stability in rat hepatocytes assessed as unbound intrinsic clearance measured per 10^6 viable cells/ml at 1 uM measured upto 120 mins by LC-MS/MS analysis; assay type: ADME, cell-based, Hepatocyte; details: 2 h
[11] = Volume of distribution at steady state in Han Wistar rat at 0.90 micromol/kg, iv by LC-MS/MS analysis; assay type: ADME, organism-based; details: in vivo, dose 0.9 µmol/kg, read-out: Vdss
[12] = Clearance in Han Wistar rat at 0.90 micromol/kg, iv by LC-MS/MS analysis; assay type: ADME, organism-based; details: in vivo, dose 0.9 µmol/kg
[13] = Half life in Han Wistar rat at 0.90 micromol/kg, iv by LC-MS/MS analysis; assay type: ADME, organism-based; details: in vivo, dose 0.9 µmol/kg
[14] = Oral bioavailability in Han Wistar rat at 1.8 micromol/kg by LC-MS/MS analysis; assay type: ADME, organism-based; details: in vivo, 1.8 µmol/kg
[15] = Volume of distribution at steady state in Han Wistar rat at 0.96 micromol/kg, iv by LC-MS/MS analysis; assay type: ADME, organism-based; details: in vivo, dose 0.96 µmol/kg, read-out: Vdss
[16] = Clearance in Han Wistar rat at 0.96 micromol/kg, iv by LC-MS/MS analysis; assay type: ADME, organism-based; details: in vivo, dose 0.96 µmol/kg
[17] = Half life in Han Wistar rat at 0.96 micromol/kg, iv by LC-MS/MS analysis; assay type: ADME, organism-based; details: in vivo, dose 0.96 µmol/kg
[18] = Oral bioavailability in Han Wistar rat at 1.9 micromol/kg by LC-MS/MS analysis; assay type: ADME, organism-based; details: in vivo, 1.9 µmol/kg
Relaxin receptor 1 [19] = target: T3, Relaxin receptor 1 (Mus musculus, UniProt Q6R6I7)
T3 sequence (Q6R6I7 whole entry): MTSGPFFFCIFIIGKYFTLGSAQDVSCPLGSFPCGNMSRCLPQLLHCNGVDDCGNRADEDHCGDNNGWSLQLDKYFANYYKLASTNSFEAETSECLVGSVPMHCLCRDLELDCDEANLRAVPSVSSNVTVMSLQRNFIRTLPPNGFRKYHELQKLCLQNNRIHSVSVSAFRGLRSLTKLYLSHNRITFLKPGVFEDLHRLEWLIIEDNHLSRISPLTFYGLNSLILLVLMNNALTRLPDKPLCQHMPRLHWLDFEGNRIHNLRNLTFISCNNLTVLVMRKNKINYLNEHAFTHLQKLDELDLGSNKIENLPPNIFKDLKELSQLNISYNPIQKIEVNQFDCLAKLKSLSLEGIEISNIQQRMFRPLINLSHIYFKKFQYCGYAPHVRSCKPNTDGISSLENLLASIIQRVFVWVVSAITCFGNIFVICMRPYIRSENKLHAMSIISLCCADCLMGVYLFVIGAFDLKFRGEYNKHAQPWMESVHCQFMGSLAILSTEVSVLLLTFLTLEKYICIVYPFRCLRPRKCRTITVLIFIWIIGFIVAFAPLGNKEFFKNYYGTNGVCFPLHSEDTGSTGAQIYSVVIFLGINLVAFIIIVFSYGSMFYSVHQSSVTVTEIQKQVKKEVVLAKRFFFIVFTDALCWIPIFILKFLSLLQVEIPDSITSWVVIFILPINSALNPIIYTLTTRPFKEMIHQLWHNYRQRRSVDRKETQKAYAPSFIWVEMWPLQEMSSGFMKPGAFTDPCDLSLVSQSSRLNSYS
Description: Agonist activity at mouse RXFP1 expressed in CHO-K1 cells assessed as increase in cAMP level measured after 2 hrs by HTRF cAMP assay

[20] = Protein binding in human plasma assessed as fraction unbound at 5 uM measured after 18 hrs by LC-MS/MS analysis; assay type: ADME, cell-free; details: read-out: PPB
[21] = target: T4, Relaxin receptor 1 (Homo sapiens) (UniProt Q9HBX9); details: CHO-K1, time 15.0 min
T4 sequence (whole entry): T1 sequence (Q9HBX9 whole entry)

| logD [1] | microsomal CLint at 1 µM [4] [µL/min/mg] | CL free [5] [µL/min/mg] | EC50 (Relaxin receptor 1 [7]) [nM] | SMILES | hepatocyte CLint at 1 µM [2] [µL/min/1e6 cells] | CL free [3] | other results |
| --- | --- | --- | --- | --- | --- | --- | --- |
| 3.19 | 13 | 23 | – | COc1cc(F)c(O[C@H]2CC[C@@](C)(C(=O)O)CC2)cc1C(=O)N[C@@H]1[C@H]2CC[C@H](C2)[C@@H]1C(=O)NCC(C)(C)C(F)(F)F | 4.2 | 8.6 µL/min | Papp A→B [6]: 66 ×10⁻⁶ cm/s |
| 1.5 | < 5.1 | < 6.2 | – | COc1cc(F)c(O[C@H]2CC[C@@](CO)(C(=O)O)CC2)cc1C(=O)N[C@@H]1[C@H]2CC[C@H](C2)[C@@H]1C(=O)NCC1(C)CCC1 | 6.2 | 11 µL/min | Papp A→B [6]: 3.1 ×10⁻⁶ cm/s |
| 2.9 | 50 | 69 | 79.4 | COc1c(C#N)cc(O[C@H]2CC[C@@](C)(C(=O)O)CC2)cc1C(=O)N[C@@H]1[C@H]2CC[C@H](C2)[C@@H]1C(=O)NCC1(C)CCC1 | 11 | 16 µL/min | – |
| 3 | 11 | 15 | 1000 | COCc1cc(OC)c(C(=O)N[C@@H]2[C@H]3CC[C@H](C3)[C@@H]2C(=O)NCC2(C)CCC2)cc1O[C@H]1CC[C@@](C)(C(=O)O)CC1 | 3.2 | 44 µL/min | – |
| 2.2 | 4 | 4.7 | – | COc1cc(C#N)c(O[C@H]2CC[C@@](C)(C(=O)O)CC2)cc1C(=O)N[C@@H]1[C@H]2CC[C@H](C2)[C@@H]1C(=O)NC12CC(F)(C1)C2 | 1.5 | 2.6 µL/min | fraction unbound at 18 h, 5 µM [8]: 0.101; EC50 (Relaxin receptor 1 [9]): 10500 nM; CL free [10]: 11 µL/min; Vd [11]: 0.96 L/kg; clearance [12]: 59 mL/min/kg; half-life [13]: 1.4 h; bioavailability [14]: 17% |
| 4.1 | 20 | 44 | 31.6 | COc1cc(C(F)(F)F)c(O[C@H]2CC[C@@](C)(C(=O)O)CC2)cc1C(=O)N[C@@H]1[C@H]2CC[C@H](C2)[C@@H]1C(=O)NCC1(C)CCC1 | 3.9 | 93 µL/min | – |
| 4.3 | 78 | 269 | 158 | COc1cc(F)c(C[C@H]2CC[C@@](C)(C(=O)O)CC2)cc1C(=O)N[C@@H]1[C@H]2CC[C@H](C2)[C@@H]1C(=O)NCC1(C)CCC1 | 9.8 | 43 µL/min | – |
| 2.1 | < 3 | < 5.5 | – | COc1cc(F)c(O[C@H]2CC[C@](C(=O)O)(C(F)(F)F)CC2)cc1C(=O)N[C@@H]1[C@H]2CC[C@H](C2)[C@@H]1C(=O)NCC1(C)CCC1 | 3.9 | 8.8 µL/min | Papp A→B [6]: 35 ×10⁻⁶ cm/s |
| 2.9 | 36 | 46 | 100 | COc1ccc(O[C@H]2CC[C@@](C)(C(=O)O)CC2)cc1C(=O)N[C@@H]1[C@H]2CC[C@H](C2)[C@@H]1C(=O)NCC1(C)CCC1 | 6.1 | 10 µL/min | – |
| 3.3 | 36 | 62 | 6.31 | CC1(CNC(=O)[C@H]2[C@@H]3CC[C@@H](C3)[C@H]2NC(=O)c2cc(O[C@H]3CC[C@@](C)(C(=O)O)CC3)c(F)cc2OCF)CCC1 | 8.4 | 15 µL/min | – |
| 2.3 | 6.8 | 8.5 | 1000 | COc1cc(F)c(O[C@H]2CC[C@@H](C(=O)O)CC2)cc1C(=O)N[C@@H]1[C@H]2CC[C@H](C2)[C@@H]1C(=O)NCC(C)(C)C | 2.2 | 3.4 µL/min | fraction unbound at 18 h, 5 µM [8]: 0.079; CL free [10]: 133 µL/min; Vd [15]: 0.6 L/kg; clearance [16]: 64 mL/min/kg; half-life [17]: 1.8 h; bioavailability [18]: 5.6%; EC50 (Relaxin receptor 1 [19]): > 39800 nM |
| 1.4 | 13 | 18 | 79.4 | COc1cc(F)c(O[C@H]2CC[C@@](CC#N)(C(=O)O)CC2)cc1C(=O)N[C@@H]1[C@H]2CC[C@H](C2)[C@@H]1C(=O)NCC1(C)CCC1 | 10 | 15 µL/min | – |
| > 4 | – | – | – | CC(C)Oc1ccccc1C(=O)Nc1ccccc1C(=O)Nc1cccc(S(=O)(=O)C(F)(F)F)c1 | – | 3.07 10^3uL/min | fraction unbound at 18 h, 5 µM [8]: < 0.0002; fraction unbound at 18 h, 5 µM [20]: < 0.0002; pEC50 [21]: inactive |
